Laboratory results from patent US11613556B2, “Oxysterols and methods of use thereof” (Sage Therapeutics, Inc., priority 2016, dated 2023).

target: glutamate-activated channels of the GRIN1/2A subtype stably transfected in HEK 293 cells (Homo sapiens (Human), UniProt Q05586+Q12879); assay: Automated patch-clamp system (QPatch HTX), percent potentiation at 1 μM; assay type: cell-based; details: HEK293, 1 μM test compound, 300 μM NMDA with 8 μM glycine, HEK 293 GRIN1/2A, read-out: GluN2A PCA % potentiation at 1 μM
Sequence (Q12879 whole entry, looked up, other chains not shown): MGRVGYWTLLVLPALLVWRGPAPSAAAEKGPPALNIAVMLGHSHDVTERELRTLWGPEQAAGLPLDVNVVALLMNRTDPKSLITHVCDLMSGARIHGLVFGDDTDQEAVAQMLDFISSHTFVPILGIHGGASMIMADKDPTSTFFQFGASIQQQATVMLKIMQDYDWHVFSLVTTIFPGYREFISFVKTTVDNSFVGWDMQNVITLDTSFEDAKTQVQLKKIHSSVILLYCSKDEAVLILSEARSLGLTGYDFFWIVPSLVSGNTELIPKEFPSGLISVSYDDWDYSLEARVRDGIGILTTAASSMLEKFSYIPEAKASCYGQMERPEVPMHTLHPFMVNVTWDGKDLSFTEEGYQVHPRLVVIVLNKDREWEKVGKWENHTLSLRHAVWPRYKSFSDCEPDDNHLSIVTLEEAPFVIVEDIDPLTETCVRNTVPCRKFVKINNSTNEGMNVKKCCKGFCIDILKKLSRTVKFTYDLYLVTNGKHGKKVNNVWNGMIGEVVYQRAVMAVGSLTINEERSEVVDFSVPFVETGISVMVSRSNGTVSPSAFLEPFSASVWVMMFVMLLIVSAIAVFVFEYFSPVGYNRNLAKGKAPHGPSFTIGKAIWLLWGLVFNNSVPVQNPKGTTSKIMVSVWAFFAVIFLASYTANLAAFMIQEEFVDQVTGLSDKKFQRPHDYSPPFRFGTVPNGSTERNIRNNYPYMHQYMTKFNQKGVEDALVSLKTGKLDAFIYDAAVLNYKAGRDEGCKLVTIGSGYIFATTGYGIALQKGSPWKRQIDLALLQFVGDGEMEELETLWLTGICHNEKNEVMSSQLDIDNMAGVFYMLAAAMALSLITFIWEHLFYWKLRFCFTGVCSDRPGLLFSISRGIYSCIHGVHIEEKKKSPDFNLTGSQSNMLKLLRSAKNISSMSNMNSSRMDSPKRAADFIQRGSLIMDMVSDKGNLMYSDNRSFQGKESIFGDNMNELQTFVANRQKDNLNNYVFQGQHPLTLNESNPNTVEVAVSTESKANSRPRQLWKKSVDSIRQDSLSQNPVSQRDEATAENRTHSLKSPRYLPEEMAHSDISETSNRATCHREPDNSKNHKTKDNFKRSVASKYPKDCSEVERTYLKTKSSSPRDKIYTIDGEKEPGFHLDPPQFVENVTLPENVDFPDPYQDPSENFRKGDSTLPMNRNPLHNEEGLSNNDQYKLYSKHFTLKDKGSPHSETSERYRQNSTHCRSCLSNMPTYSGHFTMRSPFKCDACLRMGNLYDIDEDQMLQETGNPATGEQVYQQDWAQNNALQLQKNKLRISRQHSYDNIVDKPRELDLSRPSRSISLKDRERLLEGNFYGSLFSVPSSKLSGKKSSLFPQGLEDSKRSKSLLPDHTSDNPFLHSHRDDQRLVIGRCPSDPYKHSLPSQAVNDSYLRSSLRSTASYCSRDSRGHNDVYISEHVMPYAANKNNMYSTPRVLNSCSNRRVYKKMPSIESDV
Method: NMDA potentiation in mammalian cells which expressed NMDA receptors was assessed using the automatic patch-clamp system can be used determine the NAM activity of compounds as described below. An whole cell patch-clamp system can be used determine the PAM activity of compounds as described below.
Automated Patch-Clamp System (OPatch HTX):
In this study, HEK 293 cells stably transfected with glutamate-activated channels of the GRIN1/2A subtype will be used together with submaximal NMDA concentrations (300 μM NMDA, co-application with 8 μM Glycine) to investigate the negative allosteric modulation of the test compounds.
In general, cells will be passaged at a confluence of about 80% to […]. For electrophysiological measurements cells will be harvested at a confluence of about 80% to 90% from sterile culture flasks containing culture complete medium. Cells will be transferred as suspension in PBS to the QPatch 16X or QPatch HTX system to the centrifuge/washer directly.
Standard Laboratory Conditions: Cells will be incubated at 37° C. in a humidified atmosphere with 5% CO2 (rel. humidity about 95%).
Culture media: The cells will be continuously maintained in and passaged in sterile culture flasks containing a 1:1 mixture of Dulbecco's modified eagle medium and nutrient mixture F-12 (D-MEM/F-12 1×, liquid, with L-Glutamine) supplemented with 10% fetal bovine serum, 1% Penicillin/Streptomycin solution, and 50 μM AP-5 blocker.
Antibiotics: The complete medium as indicated above is supplemented with 100 μg/mL hygromycin, 15 μg/mL blasticidin and 1 μg/mL puromycin.
Induction of Expression: 2.5 μg/mL tetracycline is added 24 h before start of experiments.
Dose levels are in terms of test compounds, as supplied. Vehicle will be added to achieve a stock concentration of 10 mM (storage at −10° C. to −30° C.). A further stock solutions of 1.0 mM will be prepared in DMSO. Details of stock solution usage (thawing, dose formulations) will be documented in the raw data. The time period of stock solution usage will be detailed in the report.
Test Compound Concentrations
One test concentration of 1.0 μM will be tested.
All test solutions will be prepared by diluting the stock solutions with either Mg-free bath solution only or Mg-free bath solution containing NMDA (300 μM) and glycine (8.0 μM) shortly prior to the electrophysiological experiments and kept at room temperature (19° C. to 30° C.) when in use. 0.1% DMSO will be used as vehicle.
Frequency of preparation: For each test concentration, fresh solutions of test compounds will be prepared every day.
Stability of dose formulation: All preparation times will be documented in the raw data. Any observations regarding instability of test compounds will be mentioned in the raw data.
Storage of dose formulation: On the day of experimentation dose formulations will be maintained at room temperature (19° C. to 30° C.) when in use.
For preparing the experiments and for formation of the giga-ohm-seal, the following standard bath solution will be used:
Sodium Chloride: 137 mM; Potassium Chloride: 4 mM; Calcium Chloride: 1.8 mM; Magnesium Chloride: 1 mM; HEPES: 10 mM; D-Glucose: 10 mM; Cremophor: 0.02%; pH (NaOH): 7.4
The 1× bath solution will be prepared by diluting 10× bath solution without Glucose and 100× Glucose solution with water at least every 7 days. Both stock solutions have been prepared prior to the experimental start of the present study and stored at 1° C. to 9° C. (10× bath solution) or −10° C. to −30° (100× Glucose solution). The batch number(s) of the bath solution(s) used in the experiments will be documented in the raw data. When in use, the 1× bath solution will be kept at room temperature (19° C. to 30° C.). When not in use, the 1× bath solution will be stored at 1° C. to 9° C.
After the giga-seal was formed the following Mg-free bath solution will be used:
Sodium Chloride: 137 mM; Potassium Chloride: 4 mM; Calcium Chloride; 2.8 mM; HEPES: 10 mM; D-Glucose: 10 mM; Cremophor: 0.02%; pH (NaOH): 7.4 […]

Q: Which activation at 1 µM does the source give for `CC[C@]1(O)CC[C@@]2(C)C(=CC[C@H]3[C@@H]4CC[C@H]([C@H](C)[C@@H](O)CC5(C)COC5)[C@@]4(C)CC[C@@H]32)C1` [Compound 70, (3S,8S,9S,10R,13S,14S,17R)-3-ethyl-17-((2S,3S)-3-hydroxy-4-(3-methyloxetan-3-yl)butan-2-yl)-10,13-dimethyl-2,3,4,7,8,9,10,11,12,13,14,15,16,17-tetradecahydro-1H-cyclopenta[a]phenanthren-3-ol] here?
A: -40 to -10%

Q: For `COC[C@]1(O)CC[C@@]2(C)[C@H](CC[C@@H]3[C@@H]2CC[C@]2(C)[C@@H]([C@H](C)[C@H](O)C(F)(F)F)CC[C@@H]32)C1` [Compound 71, (3S,5R,8R,9S,10S,13S,14S,17R)-3-(methoxymethyl)-10,13-dimethyl-17-((2S,3S)-4,4,4-trifluoro-3-hydroxybutan-2-yl)hexadecahydro-1H-cyclopenta[a]phenanthren-3-ol], which activation at 1 µM is on record?
A: -40 to -10%

Q: With `CC(C)CC[C@H](O)[C@@H](C)[C@H]1CC[C@H]2[C@@H]3CC[C@H]4C[C@@](C)(O)CC[C@@H]4[C@H]3CC[C@]12C` [Compound 74, (3S,5S,8R,9R,10S,13S,14S,17R)-17-((2S,3S)-3-hydroxy-6-methylheptan-2-yl)-3,13-dimethylhexadecahydro-1H-cyclopenta[a]phenanthren-3-ol] as the compound, how does the activation at 1 µM read?
A: -40 to -10%

Q: `CC(C)CC[C@H](O)[C@@H](C)[C@H]1CC[C@H]2[C@@H]3CC=C4C[C@@](C)(O)CC[C@@H]4[C@H]3CC[C@]12C` [Compound 80, (3S,8R,9S,10R,13S,14S,17R)-17-((2S,3S)-3-hydroxy-6-methylheptan-2-yl)-3,13-dimethyl-2,3,4,7,8,9,10,11,12,13,14,15,16,17-tetradecahydro-1H-cyclopenta[a]phenanthren-3-ol] was tested. Which activation at 1 µM did it give?
A: -40 to -10%

Q: With `CC[C@]1(O)CC[C@@]2(C)C(=CC[C@H]3[C@@H]4CC[C@H]([C@H](C)[C@H](O)C(F)(F)F)[C@@]4(C)CC[C@@H]32)C1` [Compound 81, (3S,8S,9S,10R,13S,14S,17R)-3-ethyl-10,13-dimethyl-17-((2S,3S)-4,4,4-trifluoro-3-hydroxybutan-2-yl)-2,3,4,7,8,9,10,11,12,13,14,15,16,17-tetradecahydro-1H-cyclopenta[a]phenanthren-3-ol] as the compound, how does the activation at 1 µM read?
A: -40 to -10%

Q: How did the activation at 1 µM turn out when `CC(C)CC[C@@H](O)[C@@H](C)[C@H]1CC[C@H]2[C@@H]3CC=C4C[C@@](C)(O)CC[C@@H]4[C@H]3CC[C@]12C` [Compound 83, (3S,8R,9S,10R,13S,14S,17R)-17-((2S,3R)-3-hydroxy-6-methylheptan-2-yl)-3,13-dimethyl-2,3,4,7,8,9,10,11,12,13,14,15,16,17-tetradecahydro-1H-cyclopenta[a]phenanthren-3-ol] was run?
A: -40 to -10%

Q: How did the activation at 1 µM turn out when `CC(C)CC[C@@H](O)[C@@H](C)[C@H]1CC[C@H]2[C@@H]3CC[C@H]4C[C@](O)(C(F)(F)F)CC[C@]4(C)[C@H]3CC[C@]12C` [Compound 85, (3S,5S,8R,9S,10S,13S,14S,17R)-17-((2S,3R)-3-hydroxy-6-methylheptan-2-yl)-10,13-dimethyl-3-(trifluoromethyl)hexadecahydro-1H-cyclopenta[a]phenanthren-3-ol] was run?
A: -10 to 10%

Q: With `CC[C@]1(O)CC[C@@]2(C)[C@@H](CC[C@@H]3[C@@H]2CC[C@]2(C)[C@@H]([C@H](C)[C@@H](O)C4CCOCC4)CC[C@@H]32)C1` [Compound 86, (3S,5S,8R,9S,10S,13S,14S,17R)-3-ethyl-17-((1S,2S)-1-hydroxy-1-(tetrahydro-2H-pyran-4-yl)propan-2-yl)-10,13-dimethylhexadecahydro-1H-cyclopenta[a]phenanthren-3-ol] as the compound, how does the activation at 1 µM read?
A: -40 to -10%

Q: How did the activation at 1 µM turn out when `CC(C)CC[C@@H](O)[C@@H](C)[C@H]1CC[C@H]2[C@@H]3CC[C@H]4C[C@@](C)(O)CC[C@@H]4[C@H]3CC[C@]12C` [Compound 88, (3S,5S,8R,9R,10S,13S,14S,17R)-17-((2S,3R)-3-hydroxy-6-methylheptan-2-yl)-3,13-dimethylhexadecahydro-1H-cyclopenta[a]phenanthren-3-ol] was run?
A: -40 to -10%

Q: For `CC[C@]1(O)CC[C@@]2(C)[C@@H](CC[C@@H]3[C@@H]2CC[C@]2(C)[C@@H]([C@H](C)[C@H](O)C4CC4)CC[C@@H]32)C1` [Compound 90, (3S,5S,8R,9S,10S,13S,14S,17R)-17-((1R,2S)-1-cyclopropyl-1-hydroxypropan-2-yl)-3-ethyl-10,13-dimethylhexadecahydro-1H-cyclopenta[a]phenanthren-3-ol], which activation at 1 µM is on record?
A: -10 to 10%

Q: For `C[C@H]([C@H](C)O)[C@H]1CC[C@H]2[C@@H]3CC[C@H]4C[C@](O)(C(F)(F)F)CC[C@]4(C)[C@H]3CC[C@]12C` [Compound 91, (3S,5S,8R,9S,10S,13S,14S,17R)-17-((2S,3S)-3-hydroxybutan-2-yl)-10,13-dimethyl-3-(trifluoromethyl)hexadecahydro-1H-cyclopenta[a]phenanthren-3-ol], which activation at 1 µM is on record?
A: -40 to -10%

Q: Which activation at 1 µM does the source give for `COC[C@]1(O)CC[C@@]2(C)C(=CC[C@H]3[C@@H]4CC[C@H]([C@H](C)[C@@H](O)C(F)(F)F)[C@@]4(C)CC[C@@H]32)C1` [Compound 95, (3S,8S,9S,10R,13S,14S,17R)-3-(methoxymethyl)-10,13-dimethyl-17-((2S,3R)-4,4,4-trifluoro-3-hydroxybutan-2-yl)-2,3,4,7,8,9,10,11,12,13,14,15,16,17-tetradecahydro-1H-cyclopenta[a]phenanthren-3-ol] here?
A: < -40%

Q: With `C[C@@H]([C@H]1CC[C@H]2[C@@H]3CC[C@@H]4C[C@@](C)(O)CC[C@]4(C)[C@H]3CC[C@]12C)[C@H](O)C(F)(F)F` [Compound 97, (3S,5R,8R,9S,10S,13S,14S,17R)-3,10,13-trimethyl-17-((2S,3S)-4,4,4-trifluoro-3-hydroxybutan-2-yl)hexadecahydro-1H-cyclopenta[a]phenanthren-3-ol] as the compound, how does the activation at 1 µM read?
A: -40 to -10%
